In patent US20100324142A1, “HYDROCORTISONE DERIVATIVES AND USE THEREOF FOR THERAPEUTIC OR COSMETIC INDICATIONS” (priority 2007, published 2010):

Tested on: physiopathological hair loss of unknown cause (patients suffering from alopecia)
Experiment: Double blind clinical trial on two hundred patients suffering from alopecia
Assay type: in vivo, human
Method: Clinical Trial (Double Blind) on Two Hundred Patients Suffering from Alopecia
The action of the compound according to the invention, produced as described in Example 1, was assessed on a sample population of two hundred people, half of whom were of the female sex. All the persons included in the sample had been affected for at least four months by physiopathological hair loss of unknown cause.
A double blind trial was set up, in which one hundred patients were administered with a solution containing the compound according to the invention in bidistilled water and one hundred received a placebo solution. The solution according to the invention contained as excipients: sodium hydroxide, benzyl benzoate and benzalkonium chloride.

CC1(CCC(=O)O)C(=O)CCC2C1C(O)CC1(C)C2CCC1(O)C(=O)CO (stereo not drawn) [compound according to the invention, 3-[3,5-dihydroxy-3-(2-hydroxy-acetyl)-3a,6-dimethyl-7-oxo-dodecahydro-cyclo-penta[α]naphtalen-6-yl]-propionic acid]
patients with good hair regrowth observed (at the end of the trial, solution of the compound in bidistilled water, one hundred treated patients): 38%
adverse side effects (even after many months of treatment): total absence of adverse side effects
subjects in whom hair loss was arrested (within the first week of treatment, solution of the compound in bidistilled water, one hundred treated patients, double blind vs placebo): 94%
